{
  "source": "patent US20200255828A1",
  "about": "“METHODS AND COMPOSITIONS FOR ALTERING FUNCTION AND STRUCTURE OF CHROMATIN LOOPS AND/OR DOMAINS” (THE BROAD INSTITUTE, INC., priority 2017, published 2020)",
  "system": "HCT-116 RAD21-mAC cells",
  "assay": "In situ Hi-C: contact domains and genome compartmentalization (Arrowhead corner score, eigenvector, sliding correlation score)",
  "assay_type": "cell-based, human",
  "description": "Domains were annotated in both untreated and treated maps using Arrowhead (Durand et al., 2016b; Rao et al., 2014). Domains were called at 5 kb and 10 kb resolutions using default parameters and merged (retaining the 5 kb domain annotation for any pair of domains annotated in both the 5 kb and 10 kb annotations). Applicants annotated 9,845 domains in our untreated maps and 2,090 domains in our treated maps.\nThe most common method used for classifying Hi-C patterns is the principal component (PC) approach, which Applicants introduced in (Lieberman-Aiden et al., 2009). In this approach, each intrachromosomal contact matrix is converted to an observed/expected matrix, and the first principal component of this matrix is used to bifurcate the data into two clusters.\nApplicants first calculated the first three principal components of the 25-kb resolution observed/expected matrix for each chromosome (constructed using Juicer) using scikit learn's RandomizedPCA function. Applicants chose the principal component most correlated with GC content and assigned sign such that the vector was positively correlated with the GC content vector. Applicants then calculated the correlation of the eigenvector for each chromosome between untreated and treated maps. The mean correlation was 0.968.\nTo identify transitions in compartment state at higher resolution, Applicants used a combination of techniques. First, Applicants calculated an edge score using an algorithm similar to Canny edge detection. For every 25 kb locus in the genome, Applicants looked at the corresponding column of the 25 kb log 2(observed/expected) matrix. For every pixel (i,j) in column j, Applicants calculated a gradient=[i,j:j+3]−[i,j−4,j−1]. Applicants then searched for stretches of at least 7 pixels in the column with a gradient x such that abs(x) was greater than 0.5. […] Finally, Applicants summed the number of pixels in a column belonging to an edge to calculate the edge score for a locus. Applicants then called local peaks in this track which could correspond to compartment state transitions since a compartment state transition at locus I will create an edge between locus i−1 and i.\nAs described in Section V.a.3 of Rao et al., 2014, this is akin to measures in finance that correlate returns of prices to identify similarities between stocks. To calculate this sliding derivative correlation score, Applicants calculated the gradient in the log 2(observed/expected) matrix over every boundary called in our edge score track. More specifically, for every locus i, and all boundaries j in boundary set J that were within 15 Mb of i, Applicants calculated the difference of mean ([j:j+5,i]) and mean ([j−6:j−1,i]). Applicants then calculated the Spearman correlation coefficient of these two vectors (one vector for the gradients at all boundaries j in J for the pixels upstream of i, and one vector for the pixels downstream of i). Applicants excluded the derivative signal at pixels not located at compartment state transitions as defined by the edge score to reduce noise, reasoning that pixels inside compartment intervals were unlikely to contribute meaningful rises/falls in contact probability. Similarly, Applicants only included pixels within 15 mb of i to reduce the noise arising from sparsity far off the diagonal.\nApplicants then identified compartment boundaries by calling local peaks in the edge score track and local valleys in the sliding derivative correlation score track and merging the two peak call lists.\nTo assess the presence and strength of contact domains after auxin treatment, Applicants used the Arrowhead algorithm (Durand et al., 2016b; Rao et al., 2014). The Arrowhead algorithm calculates a corner score for every pixel, where higher corner score values represent a higher likelihood that a pixel is at the corner of a domain (see Section IV. a.3 of the Extended Experimental Procedures of Rao et al., 2014). […]",
  "data": [
    {"smiles": "O=C(O)Cc1c[nH]c2ccccc12", "note": "[auxin, indole-3-acetic acid]", "values": [
      {"measurement": "dip in sliding correlation in treated cells, H3K27me3 transitions spanned by loop domains", "setting": "209 transitions, untreated 0.01 increase", "value": 0.03},
      {"measurement": "dip in sliding correlation in treated cells, H3K27Ac transitions spanned by loop domains", "setting": "264 transitions, untreated 0.02", "value": 0.19},
      {"measurement": "dip in sliding correlation in treated cells, H3K27Ac transitions at loop domain boundaries", "setting": "307 transitions, untreated 0.41", "value": 0.49},
      {"measurement": "decrease in sliding correlation score in treated cells, compartment boundaries contained within loop domains", "setting": "349 boundaries, untreated 0.10", "value": 0.31},
      {"measurement": "decrease in sliding correlation score in treated cells, H3K27Ac transitions at loop anchors", "setting": "381 transitions, untreated 0.10", "value": 0.26},
      {"measurement": "dip in sliding correlation in treated cells, H3K27me3 transitions at loop domain boundaries", "setting": "384 transitions, untreated 0.29", "value": 0.33},
      {"measurement": "decrease in sliding correlation score in treated cells, compartment boundaries at loop domain anchors", "setting": "389 boundaries, untreated 0.35", "value": 0.53},
      {"measurement": "decrease in sliding correlation score in treated cells, H3K27me3 transitions spanned by loops", "setting": "391 transitions, untreated 0.27", "value": 0.31},
      {"measurement": "decrease in sliding correlation score in treated cells, H3K27Ac transitions spanned by loops", "setting": "426 transitions, untreated 0.41", "value": 0.50},
      {"measurement": "decrease in sliding correlation score in treated cells, H3K27me3 transitions at loop anchors", "setting": "469 transitions, untreated 0.03", "value": 0.12},
      {"measurement": "mean Pearson's r of Hi-C correlation map eigenvectors, untreated vs auxin treated", "setting": "across all chromosomes", "value": 0.968}
    ]}
  ]
}
